From paper PMC4398456, “Evidence for a Novel Mechanism of Antimicrobial Action of a Cyclic R-,W-Rich Hexapeptide” (PLoS ONE, 2015)
Residues, ends and D or L forms follow the SMILES beside them.

Test: Calcein dye release from liposomes
Type: biochemical
Settings: 10 μM peptide, 1 min, Tris buffer pH 7.4, room temperature; for permeabilisation (calcein dye release): fluorescence; for dye release: cardiolipin 40 mol%
Source text: Large unilamellar vesicles (LUVs) were used for isothermal titration calorimetry studies and prepared as described before. […] As CL potentially carries two negative charges it was applied at half POPG concentrations to give liposomes with identical surface charge. Subsequently, chloroform was evaporated under nitrogen stream and obtained lipid films were dried under high vacuum for several hours and rehydrated in phosphate buffer by thorough vortexing. The solution was heated 2–3 times in a water bath to 40°C to facilitate resuspension. POPE-LUVs were obtained after 35-fold extrusion through two stacked polycarbonate membranes (100 nm pore size) using a mini extruder (Avestin, Switzerland). The procedure gives vesicles with a diameter of 90–120 nm as determined with dynamic light scattering (DLS) performed on a Zetasizer Nano ZS ZEN 3600 (Malvern Instruments, UK). Large liposomes for dye release experiments were prepared with a solution of 80 mM calcein in 10 mM Tris buffer, 0.1 mM EDTA, pH 7.4 and treated to remove non-incorporated dye as described before.
Peptide-induced calcein release was monitored fluorimetrically by measuring the time-dependent decrease in self-quenching (ex 490 nm, em 514 nm) at room temperature on a LS 50B spectrofluorimeter (Perkin Elmer, Germany) as described before. Lipid concentration was 25 μM in Tris buffer (10 mM Tris, 154 mM NaCl, pH 7.4) and peptide concentrations ranged from 1 to 200 μM. The fluorescence intensity corresponding to 100% release was determined by addition of a 10% Triton X-100 solution. In this study, calcein release was analysed after 1 min of incubation with 10 μM peptide and 25 μM liposomal suspensions.

N=C(N)NCCC[C@@H]1NC(=O)[C@H](CCCNC(=N)N)NC(=O)[C@H](Cc2c[nH]c3ccccc23)NC(=O)[C@H](Cc2ccccc2)NC(=O)[C@H](Cc2c[nH]c3ccccc23)NC(=O)[C@H](CCCNC(=N)N)NC1=O [cWFW] (cyclo(FWRRRW))
peptide-induced dye release (CL content of 12.5% (matrix lipid not restated, follows sentence on POPE systems), 25 μM lipid): 18%
permeabilisation (calcein dye release) (PC/7.5% CL, 25 μM lipid): 15%
permeabilisation (calcein dye release) (PC/25% PG, 25 μM lipid): 8%
permeabilisation (calcein dye release) (PE/7.5% CL, 25 μM lipid): 8%
permeabilisation (calcein dye release) (PE/25%PG, 25 μM lipid (peptide/lipid 1/2.5)): 2%
dye release (POPC-based LUVs, 25 μM lipid): more than 70%
dye release (POPE-based LUVs, 25 μM lipid): more than 70%
